Read-outs that look alike come from different tables or passages of the source. Residues, ends and D or L forms follow the SMILES beside them.
Tested on: Arachidonic Acid Induced Inflammation
Assay type: in vivo, mice
Settings: for % Reduction of Ear Swelling / Ear Thickness: sc minipump
Protocol: The anti-inflammatory properties of CT-112 (SEQ. ID NO: 1) were assessed using a standardized assay for anti-inflammatory activity, i.e., the mouse ear model in which arachidonic acid (AA) is used to induce an inflammatory reaction (Young et al., 1984, J. Invest. Dermatol. 82:367-371; Doherty, et al., 1988, J. Invest. Dermatol. 91:298-302).
Female mice (C57BL/6UAF, Charles River Breeding Laboratories, approximately 15-18 g) were obtained and acclimated for 2 weeks prior to use. The animals were approximately 14 weeks old at the start of the study.
To prepare minipumps for implantation, CT-112 (SEQ. ID NO: 1) was dissolved in PBS. The material was loaded into Alzet minipumps set to deliver 0.05 (5 animals), 0.1 (10 animals), 1 (10 animals), or 2.5 (5 animals) mg of CT-112 (SEQ. ID NO: 1) per animal per day. Minipumps for implantation into control animals contained only PBS. As a positive control, one set of 10 mice received 100 mg/kg of phenidone, a potent 5-lipoxygenase inhibitor which acts as an anti-inflammatory agent, 15 min prior to challenge with AA.
For subcutaneous implantation of minipumps, animals were anesthetized with Ketamine/Xylazine. The Ketamine (Aveco Lot #440140) was injected at 80 mg/kg and the Xylazine (Rugby Laboratories Lot #26040-B) at 16 mg/kg and the Alzet pumps were implanted subcutaneously in the dorsothoracic area. Animals were allowed to recover and then housed and given food and water ad libitum for 5 days.
On the sixth day following pump implantation, 0.01 ml of AA was applied to the inner and outer surfaces of the right ear by means of an automatic microliter pipette. One hr following AA application, the mice were sacrificed and ear thickness was measured with a Mitutoyo No. 7300 Gauge Caliper. The left ears were also measured as an internal control.
Mice were implanted with Alzet mini-pumps set to deliver 60 mg/kg/day for either 7, 3, or 1 days. A separate group of 5 mice received 3 intraperitoneal injections of CT-112 (60 mg/kg/injection) at 24, 1 and 0.25 hr prior to AA challenge. CT-112 (SEQ. ID NO: 1) was prepared for injection by dissolving the compound in Dulbecco's PBS to give a final CT-112 (SEQ. ID NO: 1) concentration of 5 mg/ml. The control mice were implanted with Alzet minipumps that delivered PBS for 7 days. The AA challenge was the same as described supra in Example 7.
Administration of CT-112 (SEQ. ID NO: 1) (60 mg/kg/injection) via multiple intraperitoneal injections was performed at the following times prior to AA challenge: • a) 6, 3, 1 and 0.25 hr; • b) 3, 1 and 0.25 hr; or • c) 1 and 0.25 hr.
In addition, the effect of a single administration of CT-112 (SEQ. ID NO: 1) (60 mg/kg) by intraperitoneal injection was performed at either 1 or 3 hr prior to AA challenge. Control mice had Alzet minipumps implanted to deliver PBS for 7 days prior to AA challenge. The AA challenge was the same as described supra in Example 7. The results of the multiple dosing regimens and the 1 hr and 3 hr single dosing regimens were compared to the anti-inflammatory activity of CT-112 (SEQ. ID NO: 1) delivered via Alzet minipump set to deliver 60 mg/kg/day for 7 days using 5 animals per treatment.
In a separate experiment, the effect of multiple intraperitoneal injections of CT-112 (SEQ. ID NO: 1) at either 6, 3, 1 and 0.25 hr, or 16, 3, 1 and 0.25 hr prior to AA challenge was assessed. The results of both multi-dosing regimens were compared to both phenidone (100 mg/kg administered 15 min prior to AA challenge) and CT-112 (SEQ. ID NO: 1) administered via Alzet mini-pump (60 mg/kg/day for 7 days). For this latter study, the number of animals receiving the single injection of CT-112 (SEQ. ID NO: 1) was increased from 5 to 10.
Administration to mice of CT-112 (SEQ. ID NO: 1) (60 mg/kg/injection) via multiple subcutaneous injections prior to AA challenge was performed at: • a) 6, 3, 1 and 0.25 hr; • b) 3, 1 and 0.25 hr; or • c) 1 and 0.25 hr. […]

[1] = 0.05 mg/animal/day, AA on sixth day

## CC(C)[C@H](NC(=O)[C@H](CCC(N)=O)NC(=O)[C@H](CO)NC(=O)[C@@H](NC(=O)[C@@H](N)[C@@H](C)O)[C@@H](C)O)C(=O)N[C@@H](CCCNC(=N)N)C(=O)N1CCC[C@H]1C(=O)N[C@@H](CCCNC(=N)N)C(=O)O [CT-112, Thr-Thr-Ser-Gln-Val-Arg-Pro-Arg] (H-TTSQVRPR-OH)
[1]
  % Reduction of Ear Swelling: 43.1%
  Ear Thickness: 0.01577 ± 0.00155 (5) in
0.1 mg/animal/day
  % Reduction of Ear Swelling: 43.1%
  Ear Thickness: 0.01577 ± 0.00191 (10) in
1.0 mg/animal/day
  % Reduction of Ear Swelling: 89.0%
  Ear Thickness: 0.01128 ± 0.00291 (10) in
2.5 mg/animal/day
  % Reduction of Ear Swelling: 95.6%
  Ear Thickness: 0.0106 ± 0.00175 (5) in
Table III, 1-day pump, 60 mg/kg/day
  Thickness Difference (Left-Right): -0.00074 ± 0.00119 in
Table III, 3-day pump, 60 mg/kg/day
  Thickness Difference (Left-Right): -0.00115 ± 0.00058 in
Table III, 7-day pump, 60 mg/kg/day
  Thickness Difference (Left-Right): -0.00051 ± 0.00116 in
Table III, ip 60 mg/kg/injection at 24, 1 and 0.25 hr prior to AA
  Thickness Difference (Left-Right): 0.00226 ± 0.00124 in
Table IV, 7-day pump, 60 mg/kg/day
  Thickness Difference (Left-Right): 0.00033 ± 0.00065 in
Table IV, ip 60 mg/kg/injection at 1 and 0.25 hr prior to AA
  Thickness Difference (Left-Right): 0.00192 ± 0.00148 in
Table IV, ip 60 mg/kg/injection at 3, 1 and 0.25 hr prior to AA
  Thickness Difference (Left-Right): 0.00141 ± 0.00138 in
Table IV, ip 60 mg/kg/injection at 6, 3, 1 and 0.25 hr prior to AA
  Thickness Difference (Left-Right): 0.00144 ± 0.00126 in
Table IV, single ip 60 mg/kg 1 hr prior to AA
  Thickness Difference (Left-Right): 0.00308 ± 0.00189 in
Table IV, single ip 60 mg/kg 3 hr prior to AA
  Thickness Difference (Left-Right): 0.00116 ± 0.001 in
Table V, 7-day pump, 60 mg/kg/day
  Thickness Difference (Left-Right): -0.00003 ± 0.0012(5) in
Table V, ip injections at 6, 3, 1 and 0.25 hr prior to AA
  Thickness Difference (Left-Right): 0.00249 ± 0.0017(10) in
Table V, ip injections at 16, 3, 1 and 0.25 hr prior to AA
  Thickness Difference (Left-Right): 0.00283 ± 0.00218(10) in
Table VI, 7-day pump, 60 mg/kg/day
  Thickness Difference (Left-Right): 0.00083 ± 0.00084 in
Table VI, sc 60 mg/kg/injection at 1 and 0.25 hr prior to AA
  Thickness Difference (Left-Right): 0.00195 ± 0.00131 in
Table VI, sc 60 mg/kg/injection at 3, 1 and 0.25 hr prior to AA
  Thickness Difference (Left-Right): 0.00193 ± 0.0007 in
Table VI, sc 60 mg/kg/injection at 6, 3, 1 and 0.25 hr prior to AA
  Thickness Difference (Left-Right): 0.00147 ± 0.00041 in
Table VI, single sc 60 mg/kg 1 hr prior to AA
  Thickness Difference (Left-Right): 0.00174 ± 0.00128 in
Table VI, single sc 60 mg/kg 3 hr prior to AA
  Thickness Difference (Left-Right): 0.00213 ± 0.00089 in
Table VII, 3 day pump, 60 mg/kg/day
  Thickness Difference (Left-Right): 0.00127 ± 0.00128 in
Table VII, single ip 3 hr prior to AA
  Thickness Difference (Left-Right): 0.00242 ± 0.00187 in
Table VII, single sc 1 hr prior to AA
  Thickness Difference (Left-Right): 0.00214 ± 0.00122 in
Table VII, single sc 3 hr prior to AA
  Thickness Difference (Left-Right): 0.00243 ± 0.00107 in
Table VII, single sc 6 hr prior to AA
  Thickness Difference (Left-Right): 0.00117 ± 0.00066 in
Table VII, single sc -.25 (hr) prior to AA
  Thickness Difference (Left-Right): 0.00252 ± 0.00128 in
Table VIII, 3 day pump, 60 mg/kg/day
  Thickness Difference (Left-Right): 0.00058 ± 0.00086 in
Table VIII, po 200 mg/kg/gavage at 1 and 0.25 hr prior to AA
  Thickness Difference (Left-Right): 0.00241 ± 0.00124 in
Table VIII, po 200 mg/kg/gavage at 3, 1 and 0.25 hr prior to AA
  Thickness Difference (Left-Right): 0.0028 ± 0.00114 in
Table VIII, po 200 mg/kg/gavage at 6, 3, 1 and 0.25 hr prior to AA
  Thickness Difference (Left-Right): 0.00134 ± 0.00257 in
Table VIII, single gavage 200 mg/kg 1 hr prior to AA
  Thickness Difference (Left-Right): 0.00139 ± 0.00122 in
Table VIII, single gavage 200 mg/kg 3 hr prior to AA
  Thickness Difference (Left-Right): 0.00031 ± 0.00198 in
Table XI, 6 mg/kg/day, minipump, AA three days after implantation
  Thickness Difference (Left-Right): 0.00381 ± 0.00066 in
Table XI, 60 mg/kg/day, minipump, AA three days after implantation
  Thickness Difference (Left-Right): 0.00095 ± 0.00064 in
Table XIII, 24 hr via Alzet pump, 60 mg/kg/day
  Thickness Difference (Left-Right): 0.00132 ± 0.00086 in
Table XIV, 24 hr via Alzet pump, 60 mg/kg/day
  Difference Treatment (Left - Right): 0.00134 ± 0.00044 in
Table XV, 24 hr via Alzet pump, 60 mg/kg/day
  Thickness Difference (Left-Right): 0.00154 ± 0.00092 in
mouse, in vivo, 6 mg/kg/day
  % Inhibition of Inflammation: 40.8%
mouse, in vivo, 60 mg/kg, 3 h
  % Inhibition of Inflammation: 78.5%
mouse, in vivo, 200 mg/kg, 1 h
  % Inhibition of Inflammation: 72.3%
mouse, in vivo, 200 mg/kg, 3 h
  % Inhibition of Inflammation: 93.8%
mouse, in vivo, ip, 60 mg/kg
  % Inhibition of Inflammation: 62%
mouse, in vivo, ip, 3 h
  % Inhibition of Inflammation: 37.2%
mouse, in vivo, po, 200 mg/kg
  inhibition of the inflammatory process: 52-94%
mouse, in vivo, sc
  % Inhibition of Inflammation: 34.7%
mouse, in vivo, sc, 60 mg/kg, 1 h
  % Inhibition of Inflammation: 71.8%
mouse, in vivo, sc, 60 mg/kg, 3 h
  % Inhibition of Inflammation: 65.5%
mouse, in vivo, sc, 1 h
  % Inhibition of Inflammation: 44.5%
mouse, in vivo, sc, 3 h
  % Inhibition of Inflammation: 36.9%
mouse, in vivo, sc, 6 h
  % Inhibition of Inflammation: 69.6%
Multiple IP injections at 6, 3, 1 and 0.25 hr or 16, 3, 1 and 0.25 hr prior to AA
  reduction in inflammation: 56-61%
Subcutaneous injection, 60 mg/kg
  duration of activity: greater than 6 hr
Subcutaneous injection, all multi-dosing and single-dosing regimens, 60 mg/kg/injection
  inhibition of the inflammatory process: approximately 70%
